Experimental data taken from patent publication US10131652B2, “Pyrimidinyloxy benzene derivatives as herbicides” (E. I. DU PONT DE NEMOURS AND COMPANY, priority 2014, dated 2018).
Read-outs that look alike come from different tables or passages of the source.

Legend:
Format in all cases: in vivo
[1] = tested on: oilseed rape (Brassica napus); assay: Test D pre-/postemergence plant response; conditions: Brassica napus; for plant injury at 31 g/ha: 31 g ai/ha
In short: (§1)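 0 = no effect, 100 = complete control: plants were scored this way by visual comparison with controls 13 to 15 days post-treatment. Application was preemergence to sown loam/sand pots or postemergence to 2–18 cm seedlings in peat-based mix.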

soybean (Glycine max) = assay: Test D pre-/postemergence plant response; conditions: Glycine max; for plant injury at 31 g/ha: 31 g ai/ha; for plant injury at 62 g/ha: 62 g ai/ha; for plant injury at 125 g/ha: 125 g ai/ha
In short: as §1

[2] = tested on: velvetleaf (Abutilon theophrasti); assay: Test D pre-/postemergence plant response; conditions: Abutilon theophrasti; for pest or weed control at 31 g/ha: 31 g ai/ha; for pest or weed control at 62 g/ha: 62 g ai/ha; for pest or weed control at 125 g/ha: 125 g ai/ha
In short: as §1

[3] = tested on: yellow nutsedge (Cyperus esculentus); assay: Test D pre-/postemergence plant response; conditions: Cyperus; for pest or weed control at 31 g/ha: 31 g ai/ha; for pest or weed control at 62 g/ha: 62 g ai/ha; for pest or weed control at 125 g/ha: 125 g ai/ha
In short: as §1

[4] = tested on: johnsongrass (Sorghum halepense); assay: Test D pre-/postemergence plant response; conditions: Sorghum halepense; for pest or weed control at 31 g/ha: 31 g ai/ha; for pest or weed control at 62 g/ha: 62 g ai/ha; for pest or weed control at 125 g/ha: 125 g ai/ha
In short: as §1

[5] = tested on: winter wheat (Triticum aestivum); assay: Test D pre-/postemergence plant response; conditions: Triticum aestivum; for plant injury at 31 g/ha: 31 g ai/ha; for plant injury at 62 g/ha: 62 g ai/ha; for plant injury at 125 g/ha: 125 g ai/ha
In short: as §1

[6] = tested on: large (Lg) crabgrass (Digitaria sanguinalis); assay: Test D pre-/postemergence plant response; conditions: Digitaria sanguinalis; for pest or weed control at 16 g/ha: 16 g ai/ha; for pest or weed control at 31 g/ha: 31 g ai/ha; for pest or weed control at 62 g/ha: 62 g ai/ha; for pest or weed control at 125 g/ha: 125 g ai/ha
In short: as §1

[7] = tested on: ducksalad (Heteranthera limosa); assay: Test C flooded paddy test plant response; conditions: Heteranthera limosa; Flood, 250 g ai/ha; scale of 0 to 100 where 0 is no effect and 100 is complete control; 13 to 15 days; read-out: Ducksalad plant response rating
In short: (§2)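 Water-applied treatment: compounds go directly into floodwater standing 3 cm over the soil of pots holding 2-leaf-stage plants. Depth is kept constant; plants stay in a greenhouse 13 to 15 days before visual comparison with controls on a 0–100 scale.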

rice (Oryza sativa) = assay: Test C flooded paddy test plant response; conditions: Oryza sativa; Flood, 250 g ai/ha; scale of 0 to 100 where 0 is no effect and 100 is complete control; 13 to 15 days; read-out: Rice plant response rating
In short: as §2

[8] = tested on: barnyardgrass (Echinochloa crus-galli); assay: Test C flooded paddy test plant response; conditions: Echinochloa crus-galli; Flood, 250 g ai/ha; scale of 0 to 100 where 0 is no effect and 100 is complete control; 13 to 15 days; read-out: Barnyardgrass plant response rating
In short: as §2

[9] = tested on: small-flower umbrella sedge (Cyperus difformis); assay: Test C flooded paddy test plant response; conditions: Cyperus difformis; Flood, 250 g ai/ha; scale of 0 to 100 where 0 is no effect and 100 is complete control; 13 to 15 days; read-out: Sedge, Umbrella plant response rating
In short: as §2

kochia (Kochia scoparia) = assay: Test D postemergence plant response; conditions: Bassia scoparia, post-emergence
In short: (§3)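 Visual 0–100 rating vs controls (0 = no effect, 100 = complete control), scored 13–15 d after postemergence spray. Plants 1- to 4-leaf stage (2–18 cm), potted in peat/vermiculite mix, kept in greenhouse.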

wild oat (Avena fatua) = assay: Test D postemergence plant response; conditions: Avena fatua, post-emergence
In short: as §3

[10] = tested on: chickweed (common chickweed, Stellaria media); assay: Test D postemergence plant response; conditions: Stellaria media, post-emergence
In short: as §3

[11] = post-emergence, Postemergence, scale 0 to 100, 0 no effect, 100 complete control, read-out: Plant response rating, Soybean
[12] = pre-emergence, Preemergence, scale 0 to 100 (0 no effect, 100 complete control), read-out: Plant response rating, Soybean
[13] = post-emergence, Postemergence, scale 0 to 100, 0 no effect, 100 complete control, read-out: Plant response rating, Velvetleaf
[14] = pre-emergence, Preemergence, scale 0 to 100 (0 no effect, 100 complete control), read-out: Plant response rating, Velvetleaf
[15] = post-emergence, Postemergence, scale 0 to 100, 0 no effect, 100 complete control, read-out: Plant response rating, Nutsedge, Yellow
[16] = pre-emergence, Preemergence, scale 0 to 100 (0 no effect, 100 complete control), read-out: Plant response rating, Nutsedge, Yellow
[17] = post-emergence, Postemergence, scale 0 to 100, 0 no effect, 100 complete control, read-out: Plant response rating, Johnsongrass
[18] = pre-emergence, Preemergence, scale 0 to 100 (0 no effect, 100 complete control), read-out: Plant response rating, Johnsongrass
[19] = post-emergence, Postemergence, scale 0 to 100, 0 no effect, 100 complete control, read-out: Plant response rating, Wheat
[20] = pre-emergence, Preemergence, scale 0 to 100 (0 no effect, 100 complete control), read-out: Plant response rating, Wheat
[21] = post-emergence, Postemergence, scale 0 to 100 (0 no effect, 100 complete control), read-out: Crabgrass, Large plant response rating
[22] = post-emergence, Postemergence, scale 0 to 100, 0 no effect, 100 complete control, read-out: Plant response rating, Crabgrass, Large
[23] = pre-emergence, Preemergence, scale 0 to 100 (0 no effect, 100 complete control), read-out: Plant response rating, Crabgrass, Large

## Fc1cccc(Oc2ncc(Br)cn2)c1-c1cc(C(F)F)no1 [Compound 145, 5-bromo-2-[2-[3-(difluoromethyl)-5-isoxazolyl]-3-fluorophenoxy]pyrimidine]
[1]; post-emergence, Postemergence, scale 0 to 100 (0 no effect, 100 complete control), read-out: Oilseed Rape plant response rating
  plant injury at 31 g/ha: 70%
[1]; pre-emergence, Preemergence, 125 g ai/ha, read-out: Plant response rating (scale 0 to 100), Oilseed Rape
  plant injury at 125 g/ha: 100%
[1]; pre-emergence, Preemergence, 16 g ai/ha, scale 0 to 100 (0 no effect, 100 complete control), read-out: Plant response rating, Oilseed Rape
  plant injury at 16 g/ha: 40%
[1]; pre-emergence, Preemergence, scale 0 to 100 (0 no effect, 100 complete control), read-out: Plant response rating, Oilseed Rape
  plant injury at 31 g/ha: 100%
[1]; pre-emergence, Preemergence, 62 g ai/ha, scale 0 to 100 (0 no effect, 100 complete control), read-out: Plant response rating, Oilseed Rape
  plant injury at 62 g/ha: 100%
Soybean (Glycine max); post-emergence, Postemergence, scale 0 to 100 (0 no effect, 100 complete control), read-out: Soybean plant response rating
  plant injury at 31 g/ha: 60%
Soybean (Glycine max); [11]
  plant injury at 62 g/ha: 75%
  plant injury at 125 g/ha: 75%
Soybean (Glycine max); pre-emergence, Preemergence, read-out: Plant response rating (scale 0 to 100), Soybean
  plant injury at 125 g/ha: 90%
Soybean (Glycine max); pre-emergence, Preemergence, 16 g ai/ha, scale 0 to 100 (0 no effect, 100 complete control), read-out: Plant response rating, Soybean
  plant injury at 16 g/ha: 10%
Soybean (Glycine max); [12]
  plant injury at 31 g/ha: 60%
  plant injury at 62 g/ha: 75%
[2]; post-emergence, Postemergence, scale 0 to 100 (0 no effect, 100 complete control), read-out: Velvetleaf plant response rating
  pest or weed control at 31 g/ha: 70%
[2]; [13]
  pest or weed control at 62 g/ha: 75%
  pest or weed control at 125 g/ha: 80%
[2]; pre-emergence, Preemergence, read-out: Plant response rating (scale 0 to 100), Velvetleaf
  pest or weed control at 125 g/ha: 100%
[2]; pre-emergence, Preemergence, 16 g ai/ha, scale 0 to 100 (0 no effect, 100 complete control), read-out: Plant response rating, Velvetleaf
  pest or weed control at 16 g/ha: 90%
[2]; [14]
  pest or weed control at 31 g/ha: 100%
  pest or weed control at 62 g/ha: 100%
[3]; post-emergence, Postemergence, scale 0 to 100 (0 no effect, 100 complete control), read-out: Nutsedge, Yellow plant response rating
  pest or weed control at 31 g/ha: 5%
[3]; [15]
  pest or weed control at 62 g/ha: 5%
  pest or weed control at 125 g/ha: 10%
[3]; pre-emergence, Preemergence, read-out: Plant response rating (scale 0 to 100), Nutsedge, Yellow
  pest or weed control at 125 g/ha: 45%
[3]; pre-emergence, Preemergence, 16 g ai/ha, scale 0 to 100 (0 no effect, 100 complete control), read-out: Plant response rating, Nutsedge, Yellow
  pest or weed control at 16 g/ha: 0%
[3]; [16]
  pest or weed control at 31 g/ha: 0%
  pest or weed control at 62 g/ha: 30%
[4]; post-emergence, Postemergence, scale 0 to 100 (0 no effect, 100 complete control), read-out: Johnsongrass plant response rating
  pest or weed control at 31 g/ha: 5%
[4]; [17]
  pest or weed control at 62 g/ha: 5%
  pest or weed control at 125 g/ha: 40%
[4]; pre-emergence, Preemergence, read-out: Plant response rating (scale 0 to 100), Johnsongrass
  pest or weed control at 125 g/ha: 95%
[4]; pre-emergence, Preemergence, 16 g ai/ha, scale 0 to 100 (0 no effect, 100 complete control), read-out: Plant response rating, Johnsongrass
  pest or weed control at 16 g/ha: 10%
[4]; [18]
  pest or weed control at 31 g/ha: 75%
  pest or weed control at 62 g/ha: 90%
[5]; post-emergence, Postemergence, scale 0 to 100 (0 no effect, 100 complete control), read-out: Wheat plant response rating
  plant injury at 31 g/ha: 5%
[5]; [19]
  plant injury at 62 g/ha: 5%
  plant injury at 125 g/ha: 10%
[5]; pre-emergence, Preemergence, read-out: Plant response rating (scale 0 to 100), Wheat
  plant injury at 125 g/ha: 10%
[5]; pre-emergence, Preemergence, 16 g ai/ha, scale 0 to 100 (0 no effect, 100 complete control), read-out: Plant response rating, Wheat
  plant injury at 16 g/ha: 0%
[5]; [20]
  plant injury at 31 g/ha: 0%
  plant injury at 62 g/ha: 5%
[6]; [21]
  pest or weed control at 16 g/ha: 5%
  pest or weed control at 31 g/ha: 10%
[6]; [22]
  pest or weed control at 62 g/ha: 10%
  pest or weed control at 125 g/ha: 20%
[6]; pre-emergence, Preemergence, read-out: Plant response rating (scale 0 to 100), Crabgrass, Large
  pest or weed control at 125 g/ha: 100%
[6]; [23]
  pest or weed control at 16 g/ha: 85%
  pest or weed control at 31 g/ha: 100%
  pest or weed control at 62 g/ha: 100%
[7]
  pest or weed control at 250 g/ha: 90%
Rice (Oryza sativa)
  plant injury at 250 g/ha: 35%
[8]
  pest or weed control at 250 g/ha: 45%
[9]
  pest or weed control at 250 g/ha: 95%
Kochia (Kochia scoparia); 31 g ai/ha, scale 0 to 100 (0 no effect, 100 complete control), read-out: Kochia plant response rating
  pest or weed control at 31 g/ha: 100%
Kochia (Kochia scoparia); 62 g ai/ha, scale 0 to 100, 0 no effect, 100 complete control, read-out: Plant response rating, Kochia
  pest or weed control at 62 g/ha: 100%
Kochia (Kochia scoparia); 125 g ai/ha, scale 0 to 100, 0 no effect, 100 complete control, read-out: Plant response rating, Kochia
  pest or weed control at 125 g/ha: 100%
Wild oat (Avena fatua); 31 g ai/ha, scale 0 to 100 (0 no effect, 100 complete control), read-out: Oat, Wild plant response rating
  pest or weed control at 31 g/ha: 10%
Wild oat (Avena fatua); 62 g ai/ha, scale 0 to 100, 0 no effect, 100 complete control, read-out: Plant response rating, Oat, Wild
  pest or weed control at 62 g/ha: 15%
Wild oat (Avena fatua); 125 g ai/ha, scale 0 to 100, 0 no effect, 100 complete control, read-out: Plant response rating, Oat, Wild
  pest or weed control at 125 g/ha: 15%
[10]; 16 g ai/ha, scale 0 to 100 (0 no effect, 100 complete control), read-out: Chickweed plant response rating
  pest or weed control at 16 g/ha: 70%
[10]; 31 g ai/ha, scale 0 to 100 (0 no effect, 100 complete control), read-out: Chickweed plant response rating
  pest or weed control at 31 g/ha: 80%
[10]; 62 g ai/ha, scale 0 to 100, 0 no effect, 100 complete control, read-out: Plant response rating, Chickweed
  pest or weed control at 62 g/ha: 95%
[10]; 125 g ai/ha, scale 0 to 100, 0 no effect, 100 complete control, read-out: Plant response rating, Chickweed
  pest or weed control at 125 g/ha: 100%
